Data taken from patent publication US20090264382A1, “Methods for Treating Hematopoietic Neoplasms” (priority 2007, published 2009).
Where a SMILES comes first, the peptide text is derived from it. The star is where a group is joined. Cbz = O=C(OCc1ccccc1)*; CH2F = FC*

How the values were obtained:
Format in all cases: cell-based, human
[1] = test system: HL60 cells; test: Reversal of CA4P-induced apoptosis by caspase inhibitors and ROS scavenger, Annexin V/PI
Method: Leukemic cells were treated with or without CA4P for 48 hours in presence of caspase inhibitor Q-VD and the percentage of apoptotic leukemic cells was determined by Annexin V and propidium iodide staining using flow cytometry. Percentage of alive Annexin V(−)/PI(−) cells was plotted.
HL-60 cells were treated with or without CA4P for 48 hours in presence of another ROS scavenger, deferoxamine (DFX), and caspase inhibitor Q-VD and the percentage of apoptotic leukemic cells was determined by Annexin V and propidium iodide staining using flow cytometry.

[2] = test system: caspase-3; test: CA4P-induced caspase-3 activation
[3] = test system: leukemic cells (HL60, R81, U937, KG1a, THP-1); test: Protection from CA4P-mediated cell death by ascorbic acid, trypan blue exclusion; settings: CA4P 5 or 10 nM, 48 hours
Method: Leukemic cells were treated with 5 nM (HL60, R81, U937) or 10 nM (KG1a, THP-1) for 48 hours with the ascorbic acid concentrations indicated and viable cells determined by trypan blue exclusion. Results of three experiments in triplicate are expressed as percentage of viable cells compared to control±SEM (*p<0.05 as compared with CA4P-untreated cells; n=3).

[4] = test system: leukemic cells; test: Intracellular ROS detection with H2DCFDA
Method: Intracellular ROS were detected as previously described (Krejsa & Schieven, Methods Mol Biol 99:35-47 (2000)). Briefly, leukemic cells were loaded with 2 μM H2DCFDA (Molecular Probes) in assay buffer (RPMI with 10 mM HEPES) for 30 min. at 37° C. and mean fluorescent intensity was measured by flow cytometry. Results are shown from triplicate measurements (±SEM) and are representative of three independent experiments (*p<0.05 as compared with untreated cells; n=3).

[5] = test system: KG1a leukemic cells; test: Release of nuclear HMG1 protein into supernatant (necrosis marker), Western blot; settings: 24 hours, CA4P 20 mM, staurosporine 100 μM as printed
Method: Nonetheless, to rule out the possibility that CA4P may trigger necrotic cell death in subsets of the leukemic cells, the release of nuclear HMG1 protein into the culture supernatant, which has been described as a sensitive and highly specific marker for necrotic cell death (Scaffidi, et al. 2002. Nature 418, 191-5), was quantified. For detection of HMG1 protein, KG1a leukemic cells (1×106 in 2 ml X-vivo/5% FBS) were incubated with 100 μM staurosporine to induce apoptosis, freeze-thawed three times to induce necrosis, or treated with 20 mM CA4P for 24 hours. Cells were spun down, pelleted and the supernatant subjected to Western blot for HMG135.

CC(=O)N(O)CCCCCNC(=O)CCC(=O)N(O)CCCCCNC(=O)CCC(=O)N(O)CCCCCN [DFX, deferoxamine] was tested, and the “inhibition of CA4P-induced cell death” value ([1]; HL60, DFX together with caspase inhibitor Q-VD, 48 hours) was “up to 71%”.
For CC(C)[C@H](NC(=O)c1ccc2ccccc2n1)C(=O)N[C@@H](CC(=O)O)C(=O)COc1c(F)cccc1F [Q-VD, Q-VD-OPh], the “CA4P induced apoptosis blocked” value ([1]; HL60 cells, 48 hours, Annexin V/PI) was 33% and the “CA4P-induced caspase-3 activation” value [2] was “blocked”.
With COC(=O)C[C@H](NC(=O)[C@H](C)NC(=O)[C@@H](NC(=O)OCc1ccccc1)C(C)C)C(=O)CF [Z-VAD-fmk] (Cbz-Val-Ala-Asp(OMe)-CH2F) the “effect on CA4P-induced apoptosis” value ([1]; data not shown) was “no effect” and the “CA4P-induced caspase-3 activation” value [2] was “blocked”.
In the case of O=C1O[C@H]([C@@H](O)CO)C(O)=C1O [ascorbic acid, reference compound], the “effect of co-incubation on CA4P-mediated cell death” value [3] is reported as “partial decrease in CA4P-mediated cell death” and the “effect on CA4P-induced ROS accumulation” value [4] is reported as “reversal of ROS accumulation”.
In the case of CN[C@@H]1C[C@H]2O[C@@](C)([C@@H]1OC)n1c3ccccc3c3c4c(c5c6ccccc6n2c5c31)C(=O)NC4 [staurosporine, reference compound], the “release of nuclear HMG1 protein into the supernatant” value [5] is reported as “not”.
